Measured values reported in patent US20170348213A1, “Oral Care Composition” (Colgate-Palmolive Company, priority 2014, published 2017).

Columns and labels:
[1] = Antioxidant activity, LPO-CC kit (Kamiya Biomedical Company); type: biochemical; conditions: agent at 1% in ethanol
Method: The antioxidant activity of rutin was tested using an LPO-CC kit (Kamiya Biomedical Company), and compared to that of vitamin E. (The agents were tested in an amount of 1% in ethanol). The lower the optical density, the better the antioxidant capacity. The higher the percentage cumeme hydroperoxide reduction, the better the antioxidant capacity. The antioxidant efficacy of the formulations was also tested using the methods described in Example 5. The results are illustrated in Table 9a and 9b.

[2] = system: oral mucosal cells; assay: Cell irritating effect on oral mucosal cells (Janus Green B staining, optical microscope); type: cell-based; conditions: aqueous solution
Method: Aqueous solutions of different concentrations of sodium […] (SLS) and sodium methyl cocoyl taurate (SMCT) were prepared. The solutions were used to challenge oral mucosal cells. Treated cells were stained with Janus Green B and morphological changes were observed using an optical microscope to determine whether or not the cells had become irritated or remained intact. Cells were identified as normal if the cells were in tact, the cell wall was smooth, the color of the cell core was clear/dark, and if organelles could be identified. Cells were identified as irritated if the cells could not be clearly defined with a blurring of the cell wall, if there was crimping of the cell, if the color of the cell core and plasma is lighter than observed for an intact cell, and if organelles could not be identified. […]

Substance | % reduction of cumeme hydroperoxide ([1]; higher = better antioxidant capacity) | Optical Density at 675 nm ([1]; lower optical density = better antioxidant capacity) | Cell irritating effects of aqueous surfactant solutions: Results ([2]; 0.48 % active weight surfactant) | Cell irritating effects of aqueous surfactant solutions: Results ([2]; 1.40 % active weight surfactant) | Cell irritating effects of aqueous surfactant solutions: Results ([2]; 1.71 % active weight surfactant) | Cell irritating effects of aqueous surfactant solutions: Results ([2]; 2.20 % active weight surfactant)
vitamin E | 50.4719% | 0.2204 | – | – | – | –
sodium lauryl ether sulfate [SLS] | – | – | No cell irritation | Cells irritated | Cells irritated | Cells irritated
